From patent US9649294B2, “Glucagon receptor antagonist compounds, compositions containing such compounds and methods of use” (Merck Sharp & Dohme Corp., priority 2013, dated 2017)

How the values were obtained:
[1] = Pharmacokinetic study in rat; assay type: in vivo, rats; details: for MRT / half-life: PK study (IV 1 mg/kg, oral 2 mg/kg); for MRT: read-out: MRT, mean residence time; for half-life: read-out: T1/2, terminal half-life (converted)
Experimental: (§1) Intravenous (IV) PK studies were conducted at a dose of 1 mg/kg in hGCGR mice and rats and 0.5 mg/kg in dogs and rhesus monkeys. The IV doses were formulated in ethanol:PEG400:water (20:30:50 v/v/v). Oral PK studies were conducted at a dose of 2 mg/kg in mice, rats, dogs and monkeys. The oral doses were formulated in ethanol:PEG400:water (20:30:50 v/v/v) for dosing in mice and rats and in 0.5% methylcellulose in dogs and monkeys.
(§2) Plasma was prepared for analysis by protein precipitation with acetonitrile. Plasma concentrations were determined by LC-MS/MS using ABI Sciex API 4000 or 5000 mass spectrometers operated in atmospheric pressure chemical ionization mode with multiple-reaction monitoring.
(§3) Pharmacokinetic parameters were calculated with a non-compartmental model using Watson software (Watson Software, Thermo Fisher, Waltham, Mass., USA). The area under the plasma concentration versus time curve from 0 to 24 h (AUC0-24) was determined using linear trapezoidal interpolation in the ascending slope and logarithmic trapezoidal interpolation in the descending slope. The portion of the AUC from the last measurable concentration to infinity ([…]) was estimated by Ct/kel, where Ct represents the last measurable concentration and kel is the elimination rate constant. The latter was determined from the concentration versus time curve at the terminal phase by linear regression of the semilogarithmic plot. Oral bioavailability (F) was estimated as the AUC0-inf ratio following oral and i.v. administration normalized for differences in dose. The apparent half-life (t1/2) was estimated from the slope of the terminal phase of the log plasma concentration-time curve. MRT, the average time a compound molecule resides in the body, is calculated with the following equation: MRT=AUMC/AUC. In this equation AUMC is the area under the first moment curve and is determined as the area under the curve of a plot of the product of concentration and time versus time. AUC is equal to AUC0-inf.

[2] = Pharmacokinetic study in mouse; assay type: in vivo, hGCGR mice; details: for MRT / half-life: PK study (IV 1 mg/kg, oral 2 mg/kg); for MRT: read-out: MRT, mean residence time; for half-life: read-out: T1/2, terminal half-life (converted)
Experimental: as §1, §2, §3

human glucagon receptor [3] = molecular target: T1, human glucagon receptor (Homo sapiens, UniProt P47871); assay: Glucagon receptor binding assay (125I-glucagon, SPA, CHO cell membranes); details: CHO cell membranes expressing cloned human glucagon receptor
T1 construct: expressed in transfected cells; host or cells: CHO cells
T1 sequence (P47871 26-477): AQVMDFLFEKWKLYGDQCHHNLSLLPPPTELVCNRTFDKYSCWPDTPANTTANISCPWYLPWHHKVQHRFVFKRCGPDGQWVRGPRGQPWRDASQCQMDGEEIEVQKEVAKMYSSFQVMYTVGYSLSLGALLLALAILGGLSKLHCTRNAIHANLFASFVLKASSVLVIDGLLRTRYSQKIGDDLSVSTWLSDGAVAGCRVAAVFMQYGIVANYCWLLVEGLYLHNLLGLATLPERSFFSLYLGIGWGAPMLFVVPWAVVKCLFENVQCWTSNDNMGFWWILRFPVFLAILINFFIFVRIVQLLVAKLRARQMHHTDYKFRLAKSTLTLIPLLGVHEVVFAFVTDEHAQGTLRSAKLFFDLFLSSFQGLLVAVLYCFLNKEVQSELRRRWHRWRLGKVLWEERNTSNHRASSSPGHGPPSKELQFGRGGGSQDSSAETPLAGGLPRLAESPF
Experimental: A stable CHO (Chinese hamster ovary) cell line expressing cloned human glucagon receptor was maintained as described (Chicchi et al. J Biol Chem 272, 7765-9(1997); Cascieri et al. J_Biol Chem 274, 8694-7(1999)). […] After 4-12 hours incubation at room temperature, the radioactivity bound to the cell membranes was determined in a radioactive emission detection counter (Wallac-Microbeta). Data was analyzed using the software program Prism from GraphPad. IC50 values were calculated using non-linear regression analysis assuming single site competition.

human glucagon receptor [4] = molecular target: T1, human glucagon receptor; assay: Inhibition of glucagon-stimulated intracellular cAMP formation; assay type: cell-based; details: CHO cells expressing human glucagon receptor; glucagon 250 pM
Experimental: Exponentially growing CHO cells expressing human glucagon receptor were harvested with the aid of enzyme-free dissociation media (Specialty Media), pelleted at low speed, and re-suspended in the Cell Stimulation Buffer included in the Flash Plate cAMP kit (New England Nuclear, SMP0004A). The adenylate cyclase assay was setup as per manufacturer instructions. Briefly, compounds were diluted from stocks in DMSO and added to cells at a final DMSO concentration of 5%. Cells prepared as above were preincubated in flash plates coated with anti-cAMP antibodies (NEN) in presence of compounds or DMSO controls for 30 minutes, and then stimulated with glucagon (250 pM) for an additional 30 minutes. The cell stimulation was stopped by addition of equal amount of a detection buffer containing lysis buffer as well as ^125I-labeled cAMP tracer (NEN). After 3 hours of incubation at room temperature the bound radioactivity was determined in a liquid scintillation counter (TopCount-Packard Instruments). Basal activity (100% inhibition) was determined using the DMSO control while 0% inhibition was defined at the amount of pmol cAMP produced by 250 pM glucagon.

[5] = Pharmacokinetic study in dog; assay type: in vivo, dogs; details: for MRT / half-life: PK study (IV 0.5 mg/kg, oral 2 mg/kg); for MRT: read-out: MRT, mean residence time; for half-life: read-out: T1/2, terminal half-life (converted)
Experimental: as §1, §2, §3

[6] = Pharmacokinetic study in rhesus monkey; assay type: in vivo, rhesus monkeys; details: for MRT / half-life: PK study (IV 0.5 mg/kg, oral 2 mg/kg); for MRT: read-out: MRT, mean residence time; for half-life: read-out: T1/2, terminal half-life (converted)
Experimental: as §1, §2, §3

CCC[C@H](c1ccc(C(=O)NCCC(=O)O)cc1)[C@H](c1ccc(OC(F)(F)F)cc1)c1c[nH]c2c(F)cc(Cl)cc12 [Example 1, 3-(4-((1R,2S)-1-(5-Chloro-7-Fluoro-1H-Indol-3-yl)-1-(4-(Trifluoromethoxy)Phenyl)Pentan-2-yl)Benzamido)Propanoic Acid]
MRT compared to MK-3577 [1]: over 3 fold | T1/2 longer compared to MK-3577 [1]: ~1.5 fold | Oral AUCnorm(0-∞) ([1]; oral 2 mg/kg, dose-normalized): 1.2 µM·kg·h/mg | clearance ([1]; plasma, IV 1 mg/kg, read-out: Clp, plasma clearance): 18 mL/min/kg | Vd ([1]; plasma, IV 1 mg/kg, read-out: Vdss, volume of distribution at steady state): 3.2 L/kg | MRT ([1]; plasma): 2.9 h | half-life ([1]; plasma): 2.2 h | bioavailability ([1]; plasma, oral 2 mg/kg vs IV 1 mg/kg, read-out: F, oral bioavailability): 76% | MRT compared to MK-3577 [2]: ~4.5 fold | T1/2 longer compared to MK-3577 [2]: ~2.9 fold | clearance ([2]; hGCGR, plasma, IV 1 mg/kg, read-out: Clp, plasma clearance): 3.5 mL/min/kg | Vd ([2]; hGCGR, plasma, IV 1 mg/kg, read-out: Vdss, volume of distribution at steady state): 2.2 L/kg | MRT ([2]; hGCGR, plasma): 10 h | half-life ([2]; hGCGR, plasma): 8.2 h | bioavailability ([2]; hGCGR, plasma, oral 2 mg/kg vs IV 1 mg/kg, read-out: F, oral bioavailability): 87% | Oral AUCnorm(0-∞) ([2]; oral 2 mg/kg, dose-normalized): 8.0 µM·kg·h/mg | IC50 (human glucagon receptor [3]): 0.24 nM | IC50 (human glucagon receptor [4]): 19.2 nM | MRT longer compared to MK-3577 [5]: ca. 3.8 fold | T1/2 longer compared to MK-3577 [5]: ca. 3.3 fold | Oral AUCnorm(0-∞) ([5]; oral 2 mg/kg, dose-normalized): 16 µM·kg·h/mg | clearance ([5]; plasma, IV 0.5 mg/kg, read-out: Clp, plasma clearance): 0.63 mL/min/kg | Vd ([5]; plasma, IV 0.5 mg/kg, read-out: Vdss, volume of distribution at steady state): 0.72 L/kg | MRT ([5]; plasma): 20 h | half-life ([5]; plasma): 16 h | bioavailability ([5]; plasma, oral 2 mg/kg vs IV 0.5 mg/kg, read-out: F, oral bioavailability): 30% | MRT longer compared to MK-3577 [6]: ~3.4 fold | T1/2 longer compared to MK-3577 [6]: ~2.2 fold | Oral AUCnorm(0-∞) ([6]; oral 2 mg/kg, dose-normalized): 6 µM·kg·h/mg | clearance ([6]; rhesus monkey, plasma, IV 0.5 mg/kg, read-out: Clp, plasma clearance): 3 mL/min/kg | Vd ([6]; rhesus monkey, plasma, IV 0.5 mg/kg, read-out: Vdss, volume of distribution at steady state): 2 L/kg | MRT ([6]; rhesus monkey, plasma): 11 h | half-life ([6]; rhesus monkey, plasma): 11 h | bioavailability ([6]; rhesus monkey, plasma, oral 2 mg/kg vs IV 0.5 mg/kg, read-out: F, oral bioavailability): 47%

CCC[C@H](c1ccc(C(=O)NCCC(=O)O)cc1)[C@H](c1ccc(Cl)cc1)c1c[nH]c2c(F)cc(C)cc12 [MK3577, reference compound]
MRT ([1]; plasma): 0.9 h | half-life ([1]; plasma): 1.4 h | MRT ([2]; hGCGR, plasma): 2.2 h | half-life ([2]; hGCGR, plasma): 2.8 h | MRT ([5]; plasma): 5.2 h | half-life ([5]; plasma): 4.9 h | MRT ([6]; rhesus monkey, plasma): 3.2 h | half-life ([6]; rhesus monkey, plasma): 5.1 h
